In patent US9289417B2, “Compounds and methods for the modulation of sulfilimine bond formation” (VANDERBILT UNIVERSITY, priority 2009, dated 2016):
Entries after “also recorded” stand apart in the source; their conditions may differ.

Key:
[1] = tested on: type IV collagen NC1 domain sulfilimine crosslink formation; experiment: Type IV collagen NC1 domain sulfilimine crosslink (dimer) formation in matrix of cultured PF HR9 cells, western blot; assay type: cell-based, mouse; details: for effect on NC1 domain sulfilimine crosslink (dimer) formation, in words: increasing concentrations, PF HR9 cell culture matrix, western blot; for inhibition of NC1 dimer (D) formation: PF HR9 mouse endodermal cell matrix, anti-α2 chain western blot
Procedure: FIG. 9. Methimazole and Phloroglucinol inhibit type IV collagen NC1 domain sulfilimine crosslink formation. NC1 domains were prepared from collagenase digests of extracellular matrix derived from cultured PF HR9 mouse endodermal cells and detected by western blotting with an anti-α2 chain monoclonal antibody.
Standard drug discovery strategies may identify other agents that specifically target the sulfilimine cross-link system with minimal inhibition of other peroxidase systems. In addition, a monoclonal antibody can be generated to inhibit enzyme activity. These agents represent anti-angiogenic oncologic agents that can be translated to clinical medicine with broad application.

[2] = target: T1, human peroxidasin (PXDN) (Homo sapiens, UniProt Q92626); experiment: NC1 domain dimerization by HEK293 cells stably transfected with human peroxidasin plated on monomeric PFHR9 matrix; assay type: cell-based; details: concentration not given
T1 construct: expressed in transfected cells; host or cells: HEK293 (stably transfected)
T1 sequence (Q92626 27-1479): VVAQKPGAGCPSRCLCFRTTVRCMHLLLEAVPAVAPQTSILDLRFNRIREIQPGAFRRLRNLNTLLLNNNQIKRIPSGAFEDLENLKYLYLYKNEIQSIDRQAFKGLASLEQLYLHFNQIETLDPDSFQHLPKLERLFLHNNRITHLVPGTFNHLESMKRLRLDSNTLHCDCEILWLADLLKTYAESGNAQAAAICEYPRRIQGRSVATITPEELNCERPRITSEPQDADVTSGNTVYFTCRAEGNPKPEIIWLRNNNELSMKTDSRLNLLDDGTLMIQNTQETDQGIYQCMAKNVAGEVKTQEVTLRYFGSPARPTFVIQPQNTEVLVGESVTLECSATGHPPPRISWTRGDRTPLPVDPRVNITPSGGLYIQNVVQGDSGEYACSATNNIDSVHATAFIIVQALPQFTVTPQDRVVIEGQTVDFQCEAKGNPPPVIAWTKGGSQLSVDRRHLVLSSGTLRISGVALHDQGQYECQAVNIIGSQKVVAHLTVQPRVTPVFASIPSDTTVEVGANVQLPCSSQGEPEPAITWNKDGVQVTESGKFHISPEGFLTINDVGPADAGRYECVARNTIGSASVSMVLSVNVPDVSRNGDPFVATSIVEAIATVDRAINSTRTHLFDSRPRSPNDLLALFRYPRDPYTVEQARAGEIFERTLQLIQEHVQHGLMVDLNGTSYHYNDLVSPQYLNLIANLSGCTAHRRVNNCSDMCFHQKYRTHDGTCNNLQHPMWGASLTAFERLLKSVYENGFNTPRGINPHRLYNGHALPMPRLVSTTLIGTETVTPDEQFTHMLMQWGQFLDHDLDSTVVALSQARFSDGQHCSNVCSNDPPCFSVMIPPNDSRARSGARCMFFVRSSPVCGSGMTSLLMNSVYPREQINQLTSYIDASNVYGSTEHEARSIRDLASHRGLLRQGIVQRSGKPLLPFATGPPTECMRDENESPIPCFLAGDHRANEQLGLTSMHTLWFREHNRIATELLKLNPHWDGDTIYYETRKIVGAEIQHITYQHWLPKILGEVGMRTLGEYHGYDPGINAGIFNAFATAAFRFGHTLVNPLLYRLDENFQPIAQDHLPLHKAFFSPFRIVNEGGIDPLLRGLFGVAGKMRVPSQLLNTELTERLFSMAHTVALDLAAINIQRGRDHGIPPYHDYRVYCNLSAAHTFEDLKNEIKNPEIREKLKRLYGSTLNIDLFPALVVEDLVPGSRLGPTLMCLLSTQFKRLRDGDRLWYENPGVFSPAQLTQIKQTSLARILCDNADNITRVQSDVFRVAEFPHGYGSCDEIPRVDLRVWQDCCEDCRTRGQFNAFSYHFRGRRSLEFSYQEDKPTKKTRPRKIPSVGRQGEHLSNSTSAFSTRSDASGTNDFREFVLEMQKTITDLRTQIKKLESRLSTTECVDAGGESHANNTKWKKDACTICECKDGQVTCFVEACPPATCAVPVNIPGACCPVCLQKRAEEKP
Description: FIG. 11. PXDN mediates NC1 domain dimerization. HEK293 stably transfected with human peroxidasin (PXDN) plated on top of monomeric PFHR9 matrix leads to NC1 domain dimerization (middle lanes). […] Placental basement membrane (PBM) NC1 domain is shown for comparison.
Based on these findings, they pursued peroxidasin, a known matrix peroxidase, as a possible candidate for collagen IV dimer and presumably sulfilimine bond formation. […] Peroxidasin was also identified as an endogenous component of the extracellular matrix produced by the HR-9 cells with the use of mass spectrometry.

Row | SMILES | effect on NC1 domain sulfilimine crosslink (dimer) formation, in words [1] | effect on NC1 domain sulfilimine crosslink (dimer) formation, in words ([1]; listed as methimazole) | inhibition of NC1 dimer (D) formation ([1]; Phloroglucinol at 5 uM) | inhibition of NC1 dimer (D) formation ([1]; Phloroglucinol at 50 uM) | effect on NC1 domain sulfilimine crosslink (dimer) formation, in words ([1]; listed as phloroglucinol) | NC1 domain dimerization by PXDN transfected HEK293 cells in the presence of inhibitor [2]
1 | Cn1cc[nH]c1=S [Methimazole, methimazole] | decreases crosslinked NC1 dimer (D) while increasing non-crosslinked monomer (M) | inhibit cross-link formation |  |  |  | 
2 | Oc1cc(O)cc(O)c1 [Phloroglucinol, phloroglucinol] | inhibits dimer (D) formation more potently |  | near complete inhibition | complete inhibition | inhibit cross-link formation | No dimer formation was observed; also recorded: fail to lead to dimerization
